Reference: US4962109A, “Insecticidally and acaricidally active pyrimidine esters and intermediates therefor” (Imperial Chemical Industries PLC, priority 1985, dated 1990)

Key:
Type in all cases: in vivo
[1] = system: Musca domestica (houseflies - adults); assay: Contact test on houseflies - adults (MD), Cotton wool/sugar, mortality; settings: 72 h, 500 ppm, contact, 3 days, read-out: MD grading of mortality
Experimental: (§1) The activity of the Product was determined using a variety of insect pests. The Product was used in the form of liquid preparations containing 500, 250 or 100 parts per million (ppm) by weight of the Product. The preparations were made by dissolving the Product in acetone and diluting the solutions with water containing 0.01% by weight of a wetting agent sold under the trade name "LISSAPOL" NX until the liquid preparations contained the required concentration of the Product. "Lissapol" is a Registered Trade Mark.
(§2) The test procedure adopted with regard to each pest was basically the same and comprised supporting a number of the pests on a medium which was usually a host plant or a foodstuff on which the pests feed, and treating either or both the pests and the medium with the preparations. The mortality of the pests was then assessed at periods usually varying from one to three days after the treatment.
(§3) The results of the tests are given in Table III for each of the Products, at the rate in parts per million given in the second column as a grading of mortality designated as A, B or C wherein A indicates 80-100% mortality or knockdown, B indicates 50-79% mortality or knockdown and C indicates less than 50% mortality or knockdown.

[2] = system: Diabrotica balteata (rootworm larvae); assay: Residual test on rootworm larvae (DB), Filter paper/maize seed, mortality; settings: 48 h, 500 ppm, residual, 2 days, read-out: DB grading of mortality
Experimental: as §1, §2, §3

[3] = system: Tetranychus urticae (spider mites - ova); assay: Contact test on spider mites - ova (TUe), French bean leaf, mortality; settings: 144 h, 500 ppm, contact, 6 days, read-out: TUe grading of mortality
Experimental: as §1, §2, §3

[4] = system: Heliothis virescens (tobacco budworm - larvae); assay: Residual test on tobacco budworm larvae (HV), Cotton leaf, mortality; settings: 48 h, read-out: HV grading of mortality
Experimental: as §1, §2, §3
(tobacco budworm - larvae)

[5] = system: Nephotettix cincticeps (green leaf hopper - nymphs); assay: Contact test on green leaf hopper nymphs (NC), Rice plant, mortality; settings: 48 h, 500 ppm, contact, 2 days, read-out: NC grading of mortality
Experimental: as §1, §2, §3
NC Nephotettix cincticeps

[6] = system: Musca domestica (houseflies - adults); assay: Knockdown test on houseflies - adults (MD/KD), Cotton wool/sugar; settings: 500 ppm, 4 hours, read-out: MD/KD grading of knockdown
Experimental: as §1, §2
In the case of the species Musca domestica (housefly), additional tests to determine the knockdown effect of the compounds were performed. PG,163
as §3

[7] = system: Blattella germanica (cockroach nymphs); assay: Contact test on cockroach nymphs (BG/C), Plastic pot, mortality; settings: 48 h, 500 ppm, contact, 2 days, read-out: BG/C grading of mortality
Experimental: as §1, §2, §3
BG/C Blattella germanica

Myzus persicae (aphids) = assay: Contact test on aphids (MP), Chinese Cabbage leaf, mortality; settings: 72 h, 500 ppm, contact, 3 days, read-out: MP grading of mortality
Experimental: as §1, §2, §3

[8] = system: Spodoptera exigua (lesser army worm - larvae); assay: Residual test on lesser army worm larvae (SP), Cotton leaf, mortality; settings: 48 h, 500 ppm, residual, 2 days, read-out: SP grading of mortality
Experimental: as §1, §2, §3
(lesser army worm - larvae)

[9] = system: Tetranychus urticae (spider mites - adult); assay: Contact test on spider mites - adult (TUa), French bean leaf, mortality; settings: 72 h, 500 ppm, contact, 3 days, read-out: TUa grading of mortality
Experimental: as §1, §2, §3

COCc1c(F)c(F)c(COC(=O)C(c2cnc(C3(C)CC3)nc2)C(C)(C)C)c(F)c1F (racemic) [Compound 139, 2,3,5,6-tetrafluoro-4-(methoxymethyl)benzyl (RS)-2-[2-(1-methylcyclopropyl)pyrimidin-5-yl]-3,3-dimethylbutanoate]
mortality at 500 ppm [1]: 80 to 100%
mortality at 500 ppm [2]: < 50%
mortality at 500 ppm [3]: < 50%
mortality at 500 ppm [4]: 80 to 100%
mortality at 500 ppm [5]: 80 to 100%
pest or weed control at 500 ppm [6]: 80 to 100%
mortality at 500 ppm [7]: 80 to 100%
mortality at 500 ppm (Myzus persicae (aphids)): 80 to 100%
mortality at 500 ppm [8]: 80 to 100%
mortality at 500 ppm [9]: 80 to 100%

COCc1c(F)c(F)c(COC(=O)C(c2cnc(-c3ccccc3)nc2)C(C)(C)C)c(F)c1F (racemic) [Compound 161, 2,3,5,6-tetrafluoro-4-(methoxymethyl)benzyl (RS)-2-(2-phenylpyrimidin-5-yl)-3,3-dimethylbutanoate]
mortality at 500 ppm [1]: 80 to 100%
mortality at 500 ppm [2]: 50 to 79%
mortality at 500 ppm [3]: 80 to 100%
mortality at 500 ppm [4]: < 50%
mortality at 500 ppm [5]: 80 to 100%
pest or weed control at 500 ppm [6]: 80 to 100%
mortality at 500 ppm [7]: 50 to 79%
mortality at 500 ppm (Myzus persicae (aphids)): 80 to 100%
mortality at 500 ppm [8]: 80 to 100%
mortality at 500 ppm [9]: 80 to 100%

CC(C)(C)c1ncc(C(C(=O)OCc2c(F)c(F)c(COCc3ccc(Cl)cc3)c(F)c2F)C(C)(C)C)cn1 (racemic) [Compound 163, 4-[(4-chlorobenzyloxy)methyl]-2,3,5,6-tetrafluorobenyl (RS)-2-[2-(1,1-dimethylethyl)pyrimidin-5-yl]-3,3-dimethylbutanoate]
mortality at 500 ppm [1]: < 50%
mortality at 500 ppm [2]: < 50%
mortality at 500 ppm [3]: < 50%
mortality at 500 ppm [4]: < 50%
mortality at 500 ppm [5]: < 50%
pest or weed control at 500 ppm [6]: < 50%
mortality at 500 ppm [7]: < 50%
mortality at 500 ppm (Myzus persicae (aphids)): < 50%
mortality at 500 ppm [8]: 50 to 79%
mortality at 500 ppm [9]: 80 to 100%

CC(C)(C)c1ncc(C(C(=O)OCc2c(F)c(F)c(CO)c(F)c2F)C(C)(C)C)cn1 (racemic) [Compound 164, 4-(hydroxymethyl)-2,3,5,6-tetrafluorobenzyl (RS)-2-[2-(1,1-dimethylethyl)pyrimidin-5-yl]-3,3-dimethylbutanoate]
mortality at 500 ppm [1]: < 50%
mortality at 500 ppm [2]: < 50%
mortality at 500 ppm [3]: < 50%
mortality at 500 ppm [4]: 50 to 79%
mortality at 500 ppm [5]: < 50%
pest or weed control at 500 ppm [6]: 80 to 100%
mortality at 500 ppm [7]: < 50%
mortality at 500 ppm (Myzus persicae (aphids)): 50 to 79%
mortality at 500 ppm [8]: 80 to 100%
mortality at 500 ppm [9]: 80 to 100%

CC(C)(C)OC(=O)COCc1c(F)c(F)c(COC(=O)C(c2cnc(C(C)(C)C)nc2)C(C)(C)C)c(F)c1F (racemic) [Compound 165, 4-[(1,1-dimethylethyl)oxycarbonylmethoxymethyl]-2,3,5,6-tetrafluorobenzyl (RS)-2-[2-(1,1-dimethylethyl]pyrimidin-5-yl]-3,3-dimethylbutanoate]
mortality at 500 ppm [1]: < 50%
mortality at 500 ppm [2]: < 50%
mortality at 500 ppm [3]: < 50%
mortality at 500 ppm [4]: < 50%
mortality at 500 ppm [5]: 50 to 79%
pest or weed control at 500 ppm [6]: < 50%
mortality at 500 ppm [7]: < 50%
mortality at 500 ppm (Myzus persicae (aphids)): < 50%
mortality at 500 ppm [8]: < 50%
mortality at 500 ppm [9]: < 50%

CC(=O)OCc1c(F)c(F)c(COC(=O)C(c2cnc(C(C)(C)C)nc2)C(C)(C)C)c(F)c1F (racemic) [Compound 166, 2,3,5,6-tetrafluoro-4-(acetyloxymethyl)benzyl (RS)-2-[2-(1,1-dimethylethyl)pyrimidin-5-yl]-3,3-dimethylbutanoate]
mortality at 500 ppm [1]: < 50%
mortality at 500 ppm [2]: 80 to 100%
mortality at 500 ppm [3]: 80 to 100%
mortality at 500 ppm [4]: < 50%
mortality at 500 ppm [5]: 50 to 79%
pest or weed control at 500 ppm [6]: < 50%
mortality at 500 ppm [7]: < 50%
mortality at 500 ppm (Myzus persicae (aphids)): 80 to 100%
mortality at 500 ppm [8]: 80 to 100%
mortality at 500 ppm [9]: 80 to 100%
